Results taken from US20080207859A1, “F[…] LOW RESIDUAL AMOUNT OF F[…] PROCESS FOR ITS PRODUCTION” (Asahi Glass Company, Limited, priority 2005, published 2008).

Experiment: Measurement of 1-octanol/water partition coefficient (LogPOW) by HPLC, OECD Test Guideline 117
Format: physicochemical
Conditions: for LogPOW (1-octanol/water partition coefficient): HPLC method, OECD Test Guideline 117, calculated from elution time via calibration curve of standard carboxylic acids, column temperature 40° C.; for bioaccumulation potential (judged from LogPOW value compared to APFO): inferred from LogPOW relative to APFO
Experimental: In accordance with OECD Test Guideline 117, 1-octanol/water partition coefficient (LogPOW) of a fluorinated emulsifier was measured by using HPLC (high performance liquid chromatography).
Conditions for the measurement were as follows:
column: TOSOH ODS-120T column (φ4.6 mm×250 mm), eluent: acetonitrile/0.6 mass % of HClO4 aqueous solution=1/1 (vol/vol %), flow rate: […], sample amount: 300 μL, column temperature: 40° C., and detection light: UV 210 nm (WO2005-42593).
HPLC was carried out on standard substances (heptanoic acid, octanoic acid, nonanoic acid and decanoic acid) having known 1-octanol/water partition coefficients, and a calibration curve was prepared from the respective elution times and octanol/water partition coefficients of the respective standard substances. Based on this calibration curve, a value of partition coefficient (LogPOW) between 1-octanol and water was calculated from the elution time by HPLC of the fluorinated emulsifier.

SMILES	LogPOW (1-octanol/water partition coefficient)	bioaccumulation potential (judged from LogPOW value compared to APFO)
N.O=C(O)C(F)(F)C(F)(F)C(F)(F)C(F)(F)C(F)(F)C(F)(F)C(F)(F)F [CF3(CF2)6COONH4, ammonium perfluorooctanoate]	3.67	–
N.O=C(O)C(F)(F)OC(F)(F)C(F)(F)OC(F)(F)C(F)(F)F [CF3CF2OCF2CF2OCF2COONH4]	3.13	low
N.O=C(O)C(F)(OC(F)(F)C(F)(OC(F)(F)C(F)(F)F)C(F)(F)F)C(F)(F)F (centres unmarked) [CF3CF2OCF(CF3)CF2OCF(CF3)COONH4]	4.03	high
